According to ChEMBL document CHEMBL5113408, “Design, synthesis and antitumour activity of novel 5(6)-amino-benzimidazolequinones containing a fused morpholine” (Eur J Med Chem, 2022):
Calls of active or inactive are those of the source. The calls are words filed in the database; no cut-off is given here.

Experiments:
HGC-27 [1] = assay: Antiproliferative activity against human HGC-27 cells assessed as inhibition of cell growth at 0.25 to 8 uM by SRB assay; assay type: functional, cell-based; settings: dose 0.25-8 µM, time 24-72 hrs, TDE = time-dependent effect
MGC-803 [2] = assay: Induction of cell cycle arrest in human MGC-803 cells assessed as accumulation of cells at S phase at 2 uM incubated for 36 hrs by PI staining based flow cytometry analysis (reference value: 20.5%); assay type: functional
HeLa = assay: Antiproliferative activity against human HeLa cells assessed as inhibition of cell growth by SRB assay; assay type: functional, cell-based
MGC-803 [3] = assay: Induction of apoptosis in human MGC-803 cells assessed as decrease in caspase 3 protein expression level at 1 to 4 uM incubated for 48 hrs by Western blot analysis; assay type: functional, cell-based; settings: dose 1-4 µM
MGC-803 [4] = assay: Induction of cell cycle arrest in human MGC-803 cells assessed as accumulation of cells at G2/M phase at 2 uM incubated for 36 hrs by PI staining based flow cytometry analysis (reference value: 20.5%); assay type: functional
HGC-27 [5] = assay: Induction of cell cycle arrest in human HGC-27 cells assessed as accumulation of cells at S phase at 4 uM incubated for 36 hrs by PI staining based flow cytometry analysis (reference value: 8.87%); assay type: functional
HGC-27 [6] = assay: Activation of ROS/JNK signalling in human HGC-27 cells assessed as increase in p-JNK level at 1 to 4 uM by Western blot analysis; assay type: cell-based; settings: filed as activator, dose 1-4 µM
MGC-803 [7] = assay: Antiproliferative activity against human MGC-803 cells assessed as inhibition of cell growth incubated for 72 hrs by SRB assay; assay type: functional, cell-based; settings: MGC-803, 72 h
HGC-27 [8] = assay: Induction of apoptosis in human HGC-27 cells assessed as increase in cleaved caspase 3 protein expression level at 1 to 4 uM incubated for 48 hrs by Western blot analysis; assay type: functional, cell-based; settings: dose 1-4 µM
MGC-803 [9] = assay: Induction of apoptosis in human MGC-803 cells assessed as increase in cleaved caspase 9 protein expression level at 1 to 4 uM incubated for 48 hrs by Western blot analysis; assay type: functional, cell-based; settings: dose 1-4 µM
HGC-27 [10] = assay: Induction of apoptosis in human HGC-27 cells incubated for 48 hrs by Annexin-V FITC staining based flow cytometry analysis; assay type: functional, cell-based; settings: dose 1-4 µM, DDE = dose-dependent effect
MGC-803 [11] = assay: Induction of DNA damage in human MGC-803 cells assessed as appearance of longer comet tail at 4 uM; assay type: functional, cell-based
MGC-803 [12] = assay: Antitumor activity against human MGC-803 cells xenografted with BALB/c mouse assessed as vacuolated cytoplasm at 10 to 20 mg/kg, ip administered once every two days; assay type: functional, organism-based; settings: dose 10-20 mg/kg
[13] = Toxicity in BALB/c mouse xenografted with human MGC-803 cells assessed as effect on spleen at 10 to 20 mg/kg, ip administered once every two days measured after 15 days by H and E staining based assay; assay type: organism-based; settings: in vivo, 360 h, dose 10-20 mg/kg, time 15 day
[14] = Toxicity in BALB/c mouse xenografted with human MGC-803 cells assessed as effect on lung at 10 to 20 mg/kg, ip administered once every two days measured after 15 days by H and E staining based assay; assay type: organism-based; settings: in vivo, 360 h, dose 10-20 mg/kg, time 15 day
MGC-803 [15] = assay: Induction of apoptosis in human MGC-803 cells incubated for 48 hrs in presence of NAC by Annexin V-FITC and PI staining based flow cytometry analysis; assay type: functional
HGC-27 [16] = assay: Induction of apoptosis in human HGC-27 cells assessed as increase in bax/bcl-2 expression level at 1 to 4 uM incubated for 48 hrs by Western blot analysis; assay type: functional, cell-based; settings: dose 1-4 µM
HGC-27 [17] = assay: Induction of DNA damage in human HGC-27 cells assessed as increase in gamma-H2AX generation incubated for 48 hrs by Western blot analysis; assay type: functional, cell-based; settings: DDE = dose-dependent effect
MGC-803 [18] = assay: Induction of cell cycle arrest in human MGC-803 cells assessed as decrease in p-cdc25c level at 1 to 4 uM by Western blot analysis; assay type: functional, cell-based; settings: dose 1-4 µM

With `Cc1ccc(NC2=CC(=O)c3nc4n(c3C2=O)[C@H]2OC[C@@H](O)[C@H]2OC4)cc1C` as the molecule, how does the Activity (HGC-27 [1]) read?
Its Activity is “Tde”.

What about the Activity (MGC-803 [2]) of the same molecule?
Its Activity is 39.3%.

And the IC50 (HeLa)?
Its IC50 is 2690 nM.

And the Activity (MGC-803 [3])?
Its Activity is “Active”.

What about the Activity (MGC-803 [4]) of the same molecule?
Its Activity is 24%.

What about the Activity (HGC-27 [5]) of the same molecule?
The Activity was 14.4%.

And the Activity (HGC-27 [6])?
The Activity was “Active”.

And the IC50 (MGC-803 [7])?
The IC50 was 860 nM.

What about the Activity (HGC-27 [8]) of the same molecule?
The Activity was “Active”.

And the Activity (MGC-803 [9])?
Its Activity is “Active”.

What about the Activity (HGC-27 [10]) of the same molecule?
The Activity was “Dde”.

And the Activity (MGC-803 [11])?
Its Activity is “Active”.

What about the Activity (MGC-803 [12]) of the same molecule?
Its Activity is “Active”.

What about the Activity [13] of the same molecule?
Its Activity is “Non-Toxic”.

And the Activity [14]?
Its Activity is “Non-Toxic”.

What about the Activity (MGC-803 [15]) of the same molecule?
Its Activity is 9.29%.

And the Activity (HGC-27 [16])?
Its Activity is “Active”.

What about the Activity (HGC-27 [17]) of the same molecule?
The Activity was “Dde”.

And the Activity (MGC-803 [18])?
The Activity was “Active”.
